Data from ChEMBL document CHEMBL1137131, “Synthesis and cytotoxicity of water soluble quaternary salt derivatives of camptothecin” (Bioorg Med Chem Lett, 2004).
In brackets after ≈: the same amount, converted by molar mass.

Assays:
Assay type in all cases: functional, cell-based
Bel-7402 = experiment: In vitro cytotoxicity against Bel7402 cell line (human liver cancer) using MTT assay
KB = experiment: In vitro cytotoxicity against KB cell line (human epidermoid carcinoma of the nasopharynx) using MTT assay
HCT-8 = experiment: In vitro cytotoxicity against HCT-8 cell line (human colon cancer) using MTT assay

Structure (SMILES) | IC50 (Bel-7402) [µg/mL] | IC50 (KB) [µg/mL] | IC50 (HCT-8) [µg/mL]
CC[C@@]1(O)C(=O)OCc2c1cc1n(c2=O)Cc2cc3cc(OCC[n+]4cccc(C(C)=O)c4)ccc3nc2-1 | 5 | 3.21 | 3.01
CC[C@@]1(O)C(=O)OCc2c1cc1n(c2=O)Cc2cc3cc(OCC[n+]4cccc(C=O)c4)ccc3nc2-1 | 3.73 | 0.34 | 0.35
CC[C@@]1(O)C(=O)OCc2c1cc1n(c2=O)Cc2cc3cc(OCCC[n+]4cccc(O)c4)ccc3nc2-1 | 3.92 | 0.04 | 0.03
CC[C@@]1(O)C(=O)OCc2c1cc1n(c2=O)Cc2cc3cc(OCCC[n+]4cccc(CO)c4)ccc3nc2-1 | 2.87 | 0.31 | 0.34
CC[C@@]1(O)C(=O)OCc2c1cc1n(c2=O)Cc2cc3cc(OCCC[n+]4cccc(C(C)=O)c4)ccc3nc2-1 | 5 | 3.13 | 3.15
CC[C@@]1(O)C(=O)OCc2c1cc1n(c2=O)Cc2cc3cc(OCCC[n+]4ccccc4)ccc3nc2-1 | 0.44 | 0.03 | 0.03
CC[C@@]1(O)C(=O)OCc2c1cc1n(c2=O)Cc2cc3cc(OCC[n+]4cccc(C(=O)O)c4)ccc3nc2-1 | 5 | 0.31 | 0.27
CC[C@@]1(O)C(=O)OCc2c1cc1n(c2=O)Cc2cc3cc(OCC[n+]4cccc(C)c4)ccc3nc2-1 | 0.47 | 0.63 | 1.42
CC[C@@]1(O)C(=O)OCc2c1cc1n(c2=O)Cc2cc3cc(OCCC[n+]4cccc(C)c4)ccc3nc2-1 | 0.04 | < 0.005 | < 0.005
CC[C@@]1(O)C(=O)OCc2c1cc1n(c2=O)Cc2cc3cc(OCC[n+]4cccc(O)c4)ccc3nc2-1 | 0.47 | 0.32 | 0.42
CC[C@@]1(O)C(=O)OCc2c1cc1n(c2=O)Cc2cc3cc(OCCC[n+]4cccc(C=O)c4)ccc3nc2-1 | 0.46 | 0.27 | 0.17
CC[C@@]1(O)C(=O)OCc2c1cc1n(c2=O)Cc2cc3cc(OCC[n+]4ccccc4)ccc3nc2-1 | 3.53 | 0.33 | 0.45
CC[C@@]1(O)C(=O)OCc2c1cc1n(c2=O)Cc2cc3cc(OCC[n+]4cccc(CO)c4)ccc3nc2-1 | 5 | 3.28 | 3.73
CC[C@@]1(O)C(=O)OCc2c1cc1n(c2=O)Cc2cc3cc(OCCC[n+]4cccc(F)c4)ccc3nc2-1 | 5 | 3.4 | 2.02
CC[C@@]1(O)C(=O)OCc2c1cc1n(c2=O)Cc2cc3cc(OCC[n+]4cccc(F)c4)ccc3nc2-1 | 5 | 0.33 | 0.38
CC[C@@]1(O)C(=O)OCc2c1cc1n(c2=O)Cc2cc3cc(OCCC[n+]4cccc(C(=O)O)c4)ccc3nc2-1 | 0.44 | 0.32 | 0.33
CC[C@@]1(O)C(=O)OCc2c1cc1n(c2=O)Cc2cc3ccccc3nc2-1 [CAMPTOTHECIN] | 2.72 (≈ 7.81 µM) | < 0.005 | < 0.005
CC[C@@]1(O)C(=O)OCc2c1cc1n(c2=O)Cc2cc3c(CN(C)C)c(O)ccc3nc2-1.Cl [TOPOTECAN HYDROCHLORIDE] | 0.4 | 0.02 | 0.03
